Source: patent US20050090529A1, “3,5 Disubstituted indazole compounds with nitrogen-bearing 5-membered heterocycles, pharmaceutical compositions, and methods for mediating or inhibiting cell proliferation” (PFIZER INC, priority 2003, published 2005)

test system: Cyclin-dependent kinase; assay: Cyclin-dependent kinase inhibition, % inhibition at 10 nM (library Examples 99-270); format: biochemical; details: 10 nM compound
How it was run: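 Radiometric filter assay: kinase transfers ³²P/³³P from 25 μM ATP to a protein substrate in pH 7.4 HEPES buffer with MgCl2, 2% DMSO, 30° C, 20 min. EDTA stop; substrate captured on nitrocellulose or phosphocellulose membrane, washed with phosphoric acid, counted by phosphorimager.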

| Structure (SMILES) | % Inhib @ 10 nM [%] |
| --- | --- |
| CCNCc1cncc(-c2ccc3[nH]nc(-c4ncc(C(=O)NCCCc5c[nH]cn5)[nH]4)c3c2)c1C [Example 189, 2-(5-{5-[(ethylamino)methyl]-4-methylpyridin-3-yl}-1H-indazol-3-yl)-N-[3-(1H-imidazol-4-yl)propyl]-1H-imidazole-5-carboxamide] | 59 |
| CCNCc1cncc(-c2ccc3[nH]nc(-c4ncc(C(=O)N(CC)CC)[nH]4)c3c2)c1C [Example 132, N,N-diethyl-2-(5-{5-[(ethylamino)methyl]-4-methylpyridin-3-yl}-1H-indazol-3-yl)-1H-imidazxole-5-carboxamide] | 80 |
| CCNCc1cncc(-c2ccc3[nH]nc(-c4ncc(C(=O)N5CCN(CCC#N)CC5)[nH]4)c3c2)c1C [Example 214, 3-(4-{[2-(5-{5-[(ethylamino)methyl]-4-methylpyridin-3-yl}-1H-indazol-3-yl)-1H-imidazol-5-yl]carbonyl}piperazin-1-yl)propanenitrile] | 40 |
| CCNCc1cncc(-c2ccc3[nH]nc(-c4ncc(C(=O)NCCC5CCC(=O)N5Cc5ccccc5)[nH]4)c3c2)c1C (stereo not drawn) [Example 253, N-[2-(1-benzyl-5-oxopyrrolidin-2-yl)ethyl]-2-(5-{5-[(ethylamina)methyl]-4-methylpyridin-3-yl}-1H-indazol-3-yl)-1H-imidazole-5-carboxamide] | 18 |
| CCNCc1cncc(-c2ccc3[nH]nc(-c4ncc(C(=O)NC5C6CC7CC(C6)CC5C7)[nH]4)c3c2)c1C (stereo not drawn) [Example 126, N-2-adamantyl-2-(5-{5-[(ethylamino)methyl]-4-methylpyridin-3-yl}-1H-indazol-3-yl)-1H-imidazole-5-carboxamide] | 89 |
| CCNCc1cncc(-c2ccc3[nH]nc(-c4ncc(C(=O)N5CCSCC5)[nH]4)c3c2)c1C [Example 163, ethyl[(4-methyl-5-{3-[5-(thiomorpholin-4-ylcarbonyl)-1H-imidazol-2-yl]-1H-indazol-5-yl}pyridin-3-yl)methyl]amine] | 60 |
| CCNCc1cncc(-c2ccc3[nH]nc(-c4ncc(C(=O)NCc5cccnc5)[nH]4)c3c2)c1C [Example 101] | 54 |
| CCNCc1cncc(-c2ccc3[nH]nc(-c4ncc(C(=O)NCCC5=CCCCC5)[nH]4)c3c2)c1C [Example 131] | 57 |
| CCNCc1cncc(-c2ccc3[nH]nc(-c4ncc(C(=O)N[C@H](Cc5ccccc5)C(N)=O)[nH]4)c3c2)c1C [Example 108, N-{[2-(5-{5-[(ethylamino)methyl]-4-methylpyridin-3-yl}-1H-indazol-3-yl)-1H-imidazol-5-yl]carbonyl}-D-phenylalaninamide] | 57 |
| CCNCc1cncc(-c2ccc3[nH]nc(-c4ncc(C(=O)N5CCC(C(=O)c6ccccc6)CC5)[nH]4)c3c2)c1C [Example 171, (1-{[2-(5-{5[(ethylamino)methyl]-4-methylpyridin-3-yl}-1H-indazol-3-yl)-1H-imidazol-5-yl]carbonyl}piperidin-4-yl)(phenyl)methanone] | 65 |
| CCNCc1cncc(-c2ccc3[nH]nc(-c4ncc(C(=O)N5CCC(O)(CN6CCOCC6)CC5)[nH]4)c3c2)c1C [Example 266, 1-{[2-(5-{5-[(ethylamino)methyl]-4-methylpyridin-3-yl}-1H-indazol-3-yl)-1H-imidazol-5-yl]carbonyl}-4-(morpholin-4-ylmethyl)piperidin-4-ol] | 18 |
| CCNCc1cncc(-c2ccc3[nH]nc(-c4ncc(C(=O)N5CCN(CC(=O)NC(C)C)CC5)[nH]4)c3c2)c1C [Example 118, 2-(4-{[2-(5-{5-[(ethylamino)methyl]-4-methylpyridin-3-yl}-1H-indazol-3-yl)-1H-imidazol-5-yl]carbonyl}piperazin-1-yl)-N-isopropylacetamide] | 44 |
| CCNCc1cncc(-c2ccc3[nH]nc(-c4ncc(C(=O)N5CC6C[C@H]5CN6)[nH]4)c3c2)c1C [Example 187] | 44 |
| CCNCc1cncc(-c2ccc3[nH]nc(-c4ncc(C(=O)N[C@@H](CO)Cc5c[nH]c6ccccc56)[nH]4)c3c2)c1C [Example 185, 2-(5-{5-[(ethylamino)methyl]-4-methylpyridin-3-yl}-1H-indazol-3-yl)-N-[(1R)-2-hydroxy-1-(1H-indol-3-ylmethyl)ethyl]-1H-imidazole-5-carboxamide] | 52 |
| CCNCc1cncc(-c2ccc3[nH]nc(-c4ncc(C(=O)N(C)CCS(C)(=O)=O)[nH]4)c3c2)c1C [Example 241] | 59 |
| CCNCc1cncc(-c2ccc3[nH]nc(-c4ncc(C(=O)N[C@H]5CCc6ccccc65)[nH]4)c3c2)c1C [Example 162] | 81 |
| CCNCc1cncc(-c2ccc3[nH]nc(-c4ncc(C(=O)NCC5CCCO5)[nH]4)c3c2)c1C (stereo not drawn) [Example 110, 2-(5-{5-[(ethylamino)methyl]-4-methylpyridin-3-yl}-1H-indazol-3-yl)-N-(tetrahydrofuran-2-ylmethyl)-1H-imidazole-5-carboxamide] | 66 |
| CCNCc1cncc(-c2ccc3[nH]nc(-c4ncc(C(=O)N5Cc6ccccc6C5)[nH]4)c3c2)c1C [Example 227, [(5-{3-[5-(1,3-dihydro-2H-isoindol-2-ylcarbonyl)-1H-imidazol-2-yl]-1H-indazol-5-yl}-4-methylpyridin-3-yl)methyl]ethylamine] | 84 |

| Structure (SMILES) | % Inhib @ 10 nM [%] |
| --- | --- |
| CCNCc1cncc(-c2ccc3[nH]nc(-c4ncc(C(=O)NC(C)CO)[nH]4)c3c2)c1C (stereo not drawn) [Example 100] | 65 |
| CCNCc1cncc(-c2ccc3[nH]nc(-c4ncc(C(=O)N(C)Cc5cnn(-c6ccccc6)c5)[nH]4)c3c2)c1C [Example 225, 2-(5-{5-[(ethylamino)methyl]-4-methylpyridin-3-yl}-1H-indazol-3-yl)-N-methyl-N-[(1-phenyl-1H-pyrazol-4-yl)methyl]-1H-imidazole-5-carboxamide] | 70 |
| CCNCc1cncc(-c2ccc3[nH]nc(-c4ncc(C(=O)NCc5ccc(OC)c6ccccc56)[nH]4)c3c2)c1C [Example 212] | 71 |
| CCNCc1cncc(-c2ccc3[nH]nc(-c4ncc(C(=O)N5CCN(CC(=O)N6CCOCC6)CC5)[nH]4)c3c2)c1C [Example 127, ethyl({4-methyl-5-[3-(5-{[4-(2-morpholin-4-yl-2-oxoethyl)piperazin-1-yl]carbonyl}-1H-imidazol-2-yl)-1H-indazol-5-yl]pyridin-3-yl}methyl)amine] | 26 |
| CCNCc1cncc(-c2ccc3[nH]nc(-c4ncc(C(=O)N(CC)CCOC)[nH]4)c3c2)c1C [Example 175, N-ethyl-2-(5-{5-[(ethylamino)methyl]-4-methylpyridin-3-yl}-1H-indazol-3-yl)-N-(2-methoxyethyl)-1H-imidazole-5-carboxamide] | 68 |
| CCNCc1cncc(-c2ccc3[nH]nc(-c4ncc(C(=O)N5CCN(CC(=O)N(C)C)CC5)[nH]4)c3c2)c1C [Example 182] | 40 |
| CCNCc1cncc(-c2ccc3[nH]nc(-c4ncc(C(=O)NCCc5c[nH]c6cc(OC)ccc56)[nH]4)c3c2)c1C [Example 120] | 45 |
| CCNCc1cncc(-c2ccc3[nH]nc(-c4ncc(C(=O)NCCn5cc(C(=O)NC(C)(C)C)nn5)[nH]4)c3c2)c1C [Example 251] | 27 |
| CCNCc1cncc(-c2ccc3[nH]nc(-c4ncc(C(=O)NCC(=O)OCc5ccccc5)[nH]4)c3c2)c1C [Example 200, benzyl N-{[2-(5-{5-[(ethylamino)methyl]-4-methylpyridin-3-yl}-1H-indazol-3-yl)-1H-imidazol-5-yl]carbonyl}glycinate] | 63 |
| CCNCc1cncc(-c2ccc3[nH]nc(-c4ncc(C(=O)N5CCOCC5)[nH]4)c3c2)c1C [Example 152, ethyl[(4-methyl-5-{3-[5-(morpholin-4-ylcarbonyl)-1H-imidazol-2-yl]-1H-indazol-5-yl}pyridin-3-yl)methyl]amine] | 67 |
| CCNCc1cncc(-c2ccc3[nH]nc(-c4ncc(C(=O)N5C[C@@H]6[C@@H](N)[C@@H]6C5)[nH]4)c3c2)c1C [Example 193] | 52 |
| CCNCc1cncc(-c2ccc3[nH]nc(-c4ncc(C(=O)N5CCN(CCO)CC5)[nH]4)c3c2)c1C [Example 125, 2-(4-{[2-(5-{5-[(ethylamino)methyl]-4-methylpyridin-3-yl}-1H-indazol-3-yl)-1H-imidazol-5-yl]carbonyl}piperazin-1-yl)ethanol] | 40 |
| CCNCc1cncc(-c2ccc3[nH]nc(-c4ncc(C(=O)NCC5CCNCC5)[nH]4)c3c2)c1C [Example 184] | 21 |
| CCNCc1cncc(-c2ccc3[nH]nc(-c4ncc(C(=O)N5CCC(Cc6ncccn6)CC5)[nH]4)c3c2)c1C [Example 260, ethyl({4-methyl-5-[3-(5-{[4-(pyrimidin-2-ylmethyl)piperidin-1-yl]carbonyl}-1H-imidazol-2-yl)-1H-indazol-5-yl]pyridin-3-yl}methyl)amine] | 33 |
| CCNCc1cncc(-c2ccc3[nH]nc(-c4ncc(C(=O)N5CCC(CO)CC5)[nH]4)c3c2)c1C [Example 177, (1-{[2-(5-{5-[(ethylamino)methyl]-4-methylpyridin-3-yl}-1H-indazol-3-yl)-1H-imidazol-5-yl]carbonyl}piperidin-4-yl)methanol] | 63 |
| CCNCc1cncc(-c2ccc3[nH]nc(-c4ncc(C(=O)NCCSc5ccc(F)cc5)[nH]4)c3c2)c1C [Example 223] | 71 |
| CCNCc1cncc(-c2ccc3[nH]nc(-c4ncc(C(=O)N5CCCCC5Cc5ccccc5)[nH]4)c3c2)c1C (stereo not drawn) [Example 233, {[5-(3-{5-[(2-benzylpipendin-1-yl)carbonyl]-1H-imidazal-2-yl)-1H-indazol-5-yl)-4-methylpyridin-3-yl]methyl}ethylamine] | 32 |
| CCNCc1cncc(-c2ccc3[nH]nc(-c4ncc(C(=O)NCCc5c[nH]c6ccc(F)cc56)[nH]4)c3c2)c1C [Example 221, 2-(5-{5-[(ethylamino)methyl]-4-methylpyridin-3-yl}-1H-indazol-3-yl)-N-[2-(5-fluoro-1H-indol-3-yl)ethyl]-1H-imidazole-5-carboxamide] | 56 |
